From PubChem BioAssay AID1259407 (Chemical Carcinogenesis Research Information System (CCRIS), 2018)
“Also recorded” adds a separate entry of the source. Active and inactive are the calls of the source. No rule for the calls is given here.

Tested on: CCRIS mutagenicity, Ames/micronucleus/aberration tests
Assay: CCRIS mutagenicity studies
[1] = Test System: AMES SALMONELLA TYPHIMURIUM, Strain/Indicator: TA98, Metabolic Activation: HAMSTER, LIVER, S-9, AROCLOR 1254 (10%), Method: PREINCUBATION
[2] = Test System: AMES SALMONELLA TYPHIMURIUM, Strain/Indicator: TA98, Metabolic Activation: NONE, Method: PREINCUBATION
[3] = Test System: AMES SALMONELLA TYPHIMURIUM, Strain/Indicator: TA98, Metabolic Activation: RAT, LIVER, S-9, AROCLOR 1254 (10%), Method: PREINCUBATION
[4] = Test System: AMES SALMONELLA TYPHIMURIUM, Strain/Indicator: TA100, Metabolic Activation: HAMSTER, LIVER, S-9, AROCLOR 1254 (10%), Method: PREINCUBATION
[5] = Test System: AMES SALMONELLA TYPHIMURIUM, Strain/Indicator: TA100, Metabolic Activation: NONE, Method: PREINCUBATION
[6] = Test System: AMES SALMONELLA TYPHIMURIUM, Strain/Indicator: TA100, Metabolic Activation: RAT, LIVER, S-9, AROCLOR 1254 (10%), Method: PREINCUBATION
[7] = Test System: AMES SALMONELLA TYPHIMURIUM, Strain/Indicator: TA1535, Metabolic Activation: HAMSTER, LIVER, S-9, AROCLOR 1254 (10%), Method: PREINCUBATION
[8] = Test System: AMES SALMONELLA TYPHIMURIUM, Strain/Indicator: TA1535, Metabolic Activation: NONE, Method: PREINCUBATION
[9] = Test System: AMES SALMONELLA TYPHIMURIUM, Strain/Indicator: TA1535, Metabolic Activation: RAT, LIVER, S-9, AROCLOR 1254 (10%), Method: PREINCUBATION
[10] = Test System: AMES SALMONELLA TYPHIMURIUM, Strain/Indicator: TA1537, Metabolic Activation: NONE, Method: PREINCUBATION
[11] = Test System: AMES SALMONELLA TYPHIMURIUM, Strain/Indicator: TA98, Metabolic Activation: RAT, LIVER, S-9, AROCLOR 1254, Method: STANDARD PLATE
[12] = Test System: AMES SALMONELLA TYPHIMURIUM, Strain/Indicator: TA100, Metabolic Activation: RAT, LIVER, S-9, AROCLOR 1254, Method: STANDARD PLATE
[13] = Test System: AMES SALMONELLA TYPHIMURIUM, Strain/Indicator: TA97, Metabolic Activation: HAMSTER, LIVER, S-9, AROCLOR 1254 (10%), Method: PREINCUBATION
[14] = Test System: AMES SALMONELLA TYPHIMURIUM, Strain/Indicator: TA97, Metabolic Activation: HAMSTER, LIVER, S-9, AROCLOR 1254 (30%), Method: PREINCUBATION
[15] = Test System: AMES SALMONELLA TYPHIMURIUM, Strain/Indicator: TA97, Metabolic Activation: NONE, Method: PREINCUBATION
[16] = Test System: AMES SALMONELLA TYPHIMURIUM, Strain/Indicator: TA98, Metabolic Activation: HAMSTER, LIVER, S-9, AROCLOR 1254 (30%), Method: PREINCUBATION
[17] = Test System: AMES SALMONELLA TYPHIMURIUM, Strain/Indicator: TA100, Metabolic Activation: HAMSTER, LIVER, S-9, AROCLOR 1254 (30%), Method: PREINCUBATION
[18] = Test System: AMES SALMONELLA TYPHIMURIUM, Strain/Indicator: TA1535, Metabolic Activation: HAMSTER, LIVER, S-9, AROCLOR 1254 (30%), Method: PREINCUBATION
[19] = Test System: AMES SALMONELLA TYPHIMURIUM, Strain/Indicator: TA1535, Metabolic Activation: RAT, LIVER, S-9, AROCLOR 1254 (30%), Method: PREINCUBATION
[20] = Test System: AMES SALMONELLA TYPHIMURIUM, Strain/Indicator: TA1537, Metabolic Activation: HAMSTER, LIVER, S-9, AROCLOR 1254 (30%), Method: PREINCUBATION
[21] = Test System: AMES SALMONELLA TYPHIMURIUM, Strain/Indicator: TA1537, Metabolic Activation: RAT, LIVER, S-9, AROCLOR 1254 (30%), Method: PREINCUBATION

SMILES: NC(N)=NC(N)=NCCc1ccccc1
- mutagenic call (End Point: IN VITRO CHROMOSOMAL ABERRATIONS, Test System: CHO CELLS, Metabolic Activation: NONE): inactive; negative
- mutagenic call (End Point: IN VITRO CHROMOSOMAL ABERRATIONS, Test System: CHO CELLS, Metabolic Activation: RAT, LIVER, S-9, PHENOBARBITAL AND BETA-NAPHTHOFLAVONE): inactive; negative
- mutagenic call [1]: inactive; negative
- mutagenic call [2]: inactive; negative
- mutagenic call [3]: inactive; negative
- mutagenic call [4]: inactive; negative
- mutagenic call [5]: inactive; negative
- mutagenic call [6]: inactive; negative
- mutagenic call [7]: inactive; negative
- mutagenic call [8]: inactive; negative
- mutagenic call [9]: inactive; negative
- mutagenic call (Test System: AMES SALMONELLA TYPHIMURIUM, Strain/Indicator: TA1537, Metabolic Activation: HAMSTER, LIVER, S-9, AROCLOR 1254 (10%), Method: PREINCUBATION): inactive; negative
- mutagenic call [10]: inactive; negative
- mutagenic call (Test System: AMES SALMONELLA TYPHIMURIUM, Strain/Indicator: TA1537, Metabolic Activation: RAT, LIVER, S-9, AROCLOR 1254 (10%), Method: PREINCUBATION): inactive; negative

SMILES: CC(=O)Nc1ccc([C@@H]2O[C@@H]2C(=O)c2ccccc2)cc1
- mutagenic call (Test System: AMES SALMONELLA TYPHIMURIUM, Strain/Indicator: TA98, Metabolic Activation: NONE, Method: STANDARD PLATE): inactive; negative
- mutagenic call [11]: active; positive
- mutagenic call (Test System: AMES SALMONELLA TYPHIMURIUM, Strain/Indicator: TA100, Metabolic Activation: NONE, Method: STANDARD PLATE): active; positive
- mutagenic call [12]: active; positive

SMILES: Cc1ccc2c(c1)C(C)c1ccccc1-2 (stereo not given)
- mutagenic call [11]: inactive; negative
- mutagenic call [12]: active; positive

SMILES: CCC(CO)[N+](=O)[O-] (stereo not given)
- mutagenic call [13]: inactive; negative
- mutagenic call [14]: inactive; negative
- mutagenic call [15]: inactive; negative
- mutagenic call (Test System: AMES SALMONELLA TYPHIMURIUM, Strain/Indicator: TA97, Metabolic Activation: RAT, LIVER, S-9, AROCLOR 1254 (10%), Method: PREINCUBATION): inactive; negative
- mutagenic call (Test System: AMES SALMONELLA TYPHIMURIUM, Strain/Indicator: TA97, Metabolic Activation: RAT, LIVER, S-9, AROCLOR 1254 (30%), Method: PREINCUBATION): inactive; negative
- mutagenic call [1]: inactive; negative
- mutagenic call [16]: inactive; negative
- mutagenic call [2]: inactive; negative
- mutagenic call [3]: inactive; negative
- mutagenic call (Test System: AMES SALMONELLA TYPHIMURIUM, Strain/Indicator: TA98, Metabolic Activation: RAT, LIVER, S-9, AROCLOR 1254 (30%), Method: PREINCUBATION): inactive; negative
- mutagenic call (Test System: AMES SALMONELLA TYPHIMURIUM, Strain/Indicator: TA98, Metabolic Activation: RAT, LIVER, S-9, AROCLOR, Method: PREINCUBATION): inactive; negative
- mutagenic call [4]: inactive; negative
- mutagenic call [17]: inactive; negative
- mutagenic call [5]: inactive; negative
- mutagenic call [6]: inactive; negative
- mutagenic call (Test System: AMES SALMONELLA TYPHIMURIUM, Strain/Indicator: TA100, Metabolic Activation: RAT, LIVER, S-9, AROCLOR 1254 (30%), Method: PREINCUBATION): inactive; negative
- mutagenic call (Test System: AMES SALMONELLA TYPHIMURIUM, Strain/Indicator: TA100, Metabolic Activation: RAT, LIVER, S-9, AROCLOR, Method: PREINCUBATION): inactive; negative
- mutagenic call (Test System: AMES SALMONELLA TYPHIMURIUM, Strain/Indicator: TA102, Metabolic Activation: NONE, Method: PREINCUBATION): inactive; negative
- mutagenic call (Test System: AMES SALMONELLA TYPHIMURIUM, Strain/Indicator: TA102, Metabolic Activation: RAT, LIVER, S-9, AROCLOR, Method: PREINCUBATION): inactive; negative
- mutagenic call [7]: inactive; negative
- mutagenic call [18]: inactive; negative
- mutagenic call [8]: inactive; negative
- mutagenic call [9]: inactive; negative
- mutagenic call [19]: inactive; negative
- mutagenic call [20]: inactive; negative
- mutagenic call [10]: inactive; negative
- mutagenic call [21]: inactive; negative

SMILES: CCNc1cc(NC(C)=O)c(N=Nc2c(Cl)cc([N+](=O)[O-])cc2[N+](=O)[O-])cc1OC
- mutagenic call (End Point: IN VITRO CHROMOSOMAL ABERRATIONS, Test System: CHL CELLS, Metabolic Activation: NONE): inactive; negative; precipitation of test chemical observed above 0.01 mg/ml; also recorded: active; positive (ploidy changes); precipitation of test chemical observed above 0.01 mg

SMILES: CCCCCCCCn1sccc1=O
- mutagenic call [13]: inactive; negative
- mutagenic call [14]: inactive; negative
- mutagenic call [15]: inactive; negative
- mutagenic call (Test System: AMES SALMONELLA TYPHIMURIUM, Strain/Indicator: TA97, Metabolic Activation: RAT, LIVER, S-9, AROCLOR 1254 (10 OR 30%), Method: PREINCUBATION): inactive; negative
- mutagenic call [1]: inactive; negative
- mutagenic call [16]: inactive; negative
- mutagenic call [2]: inactive; negative
- mutagenic call (Test System: AMES SALMONELLA TYPHIMURIUM, Strain/Indicator: TA98, Metabolic Activation: RAT, LIVER, S-9, AROCLOR 1254 (10 OR 30%), Method: PREINCUBATION): inactive; negative
- mutagenic call [4]: inactive; negative
- mutagenic call [17]: inactive; negative
- mutagenic call [5]: inactive; negative
- mutagenic call (Test System: AMES SALMONELLA TYPHIMURIUM, Strain/Indicator: TA100, Metabolic Activation: RAT, LIVER, S-9, AROCLOR 1254 (10 OR 30%), Method: PREINCUBATION): inactive; negative
- mutagenic call [7]: inactive; negative
- mutagenic call [18]: inactive; negative
- mutagenic call [8]: inactive; negative
- mutagenic call [9]: inactive; negative
- mutagenic call [19]: inactive; negative
- mutagenic call [20]: inactive; negative
- mutagenic call [10]: inactive; negative
- mutagenic call [21]: inactive; negative

SMILES: CC(O)CN(N=O)C(N)=O (stereo not given)
- mutagenic call (Test System: E. COLI B, Strain/Indicator: H/R30R, Metabolic Activation: NONE): active; positive
- mutagenic call (Test System: E. COLI B, Strain/Indicator: HS30R, Metabolic Activation: NONE): active; positive
